Data from patent publication US20230103142A1, “SMALL MOLECULE REGULATORS OF NOTCH1 AND USES THEREOF” (THE PENN STATE RESEARCH FOUNDATION, priority 2020, published 2023).
Read-outs that look alike come from different tables or passages of the source.

Assays:
[1] = molecular target: NRR of Notch1 in HCT116 cells (Homo sapiens, UniProt P46531); conditions: ASR490-treated HCT116 cells
Protocol: (§1) Binding Studies. The protein-ligand binding was first studied by cellular thermal shift assay (CETSA) by following previously described protocol. […] Equal amount of cell lysate was used for ELISA with NRR antibody (Cat: NBP2-62557; Novus Biologicals). GloMelt Thermal Shift Protein Stability assay was performed as per the kit instructions (GloMelt™ Thermal Shift Protein Stability Kit; Biotium; Fermont, Calif.). […] A protein melt run profile was generated and Tm (melting temperature) was calculated using DNA melt curve software. To analyze protein melting, the Tm was considered at the lowest −dF/dT value (at the lowest point on the curve).

purified NRR protein = conditions: vs vehicle (DMSO)
Protocol: as §1

HCT116 cells [2] = conditions: HCT116, 24 h
Protocol: (§2) Flow cytometry analysis: 0.3×10^6 cells seeded in a 6 well plate and were cultured until 70-80% confluence was achieved. […] To quantify apoptosis, flow cytometry analysis of the Annexin V-FITC against Propidium Iodide (PI) assay was performed following a previously described protocol. The Apoptosis detection kit was purchased from BD Pharminogen™, San Diego, Calif., USA. All experiments were repeated in triplicate to achieve statistical relevance.

Notch1/HCT116 clone C4 [3] = conditions: C4, IC50 concentration
Protocol: as §2

Notch1/HCT116 clone C5 [4] = conditions: C5, IC50 concentration
Protocol: as §2

SW-620 cells [5] = conditions: SW-620, 24 h
Protocol: as §2

pCMV/HCT116 cells [6] = conditions: pCMV/HCT116, IC50 concentration
Protocol: as §2

HCT116 cells [7] = conditions: HCT116, 24 h; remark: listed apart in the source
Protocol: (§3) Cell invasion and migration assays: The invasive capability of pCMV/HCT116 and Notch1/HCT116 was evaluated in Boyden chambers, as described in earlier studies. HCT 116, SW-620, pCMV/HCT116, and Notch1/HCT116 cells were analyzed for migration capability with protocols already described in an earlier study. All experiments were performed in triplicate to achieve statistical relevance.

Notch1/HCT116 clone C4 [8] = conditions: C4, IC50 dose, 24 h
Protocol: as §3

Notch1/HCT116 clone C5 [9] = conditions: C5, IC50 dose, 24 h
Protocol: as §3

SW620 cells = conditions: SW620, 24 h
Protocol: as §3

pCMV/HCT116 cells [10] = conditions: pCMV/HCT116, IC50 dose, 24 h
Protocol: as §3

ALDH+ (BCSC) cells = system: ALDH+ (BCSC) cells
Text: (§4) Studies have shown that Notch1 signaling is mainstay of breast cancer stem cell (BCSC) growth.

ALDH− (BC) cells = system: ALDH− (BC) cells
Text: as §4

[11] = system: proteasome in ALDH+ cells; conditions: 15 and 30 min
Text: Commercially available positive and negative controls were used for these experiments. […] Next, ubiquitination-associated NRR of Notch 1 degradation were examined.

ubiquitin in ALDH+ cells = experiment: ubiquitin expression; assay type: cell-based
MDA-MB-231 TNBC cells = experiment: cell viability assay; assay type: cell-based; conditions: for IC50: read-out: IC50 cell growth
Protocol: Synergistic effects of combinations were calculated via isobologram analysis.

SW-620 cells [12] = conditions: read-out: IC50 cell viability
Protocol: (§5) Six biological replicates used for MTT assays and it was repeated twice for each experiment. […] The anchorage-independent growth assay was performed and repeated in triplicate.

MDA-MB-231 cells = experiment: apoptosis assay
pCMV/HCT116 cells [13] = experiment: colony forming assay
Protocol: as §5

Notch1/HCT116 clone C4 [14] = experiment: colony forming assay
Protocol: as §5

pCMV/HCT116 xenografts = experiment: xenograft tumor growth study; conditions: 5 mg/kg intraperitoneally thrice a week, 4 weeks
Protocol: Xenograft studies: Six- to eight-week-old BALB/c athymic nude mice (nu/nu) (Jackson Laboratory: Bar Harbor, Me., USA) were subcutaneously injected with pCMV/HCT116 and C4 (1×10^6 cells). The monitoring and measurements were performed.

Notch2 in HCT116 cells = experiment: immunoblot with Notch2 antibody; conditions: HCT116, IC50 concentration, 12 h and 24 h
Text: (§6) Data are presented as the mean±standard deviation (SEM/SD) of three independent experiments. The Student's t-test was used to calculate the statistical significance between the vehicle and treatment at each concentration. *p<0.05 and **p<0.01.

Notch3 in HCT116 cells = experiment: immunoblot with Notch3 antibody; conditions: HCT116, IC50 concentration, 12 h and 24 h
Text: as §6

[15] = system: ALDH+ xenotransplanted tumors; experiment: ALDH+ xenotransplant tumor burden; conditions: ALDH+ xenotransplanted mice
[16] = read-out: IC 50 cell growth, 24 h
[17] = read-out: IC 50 cell growth, 48 h

NRR of Notch1 in HCT116 cells, sequence (P46531 19-2555): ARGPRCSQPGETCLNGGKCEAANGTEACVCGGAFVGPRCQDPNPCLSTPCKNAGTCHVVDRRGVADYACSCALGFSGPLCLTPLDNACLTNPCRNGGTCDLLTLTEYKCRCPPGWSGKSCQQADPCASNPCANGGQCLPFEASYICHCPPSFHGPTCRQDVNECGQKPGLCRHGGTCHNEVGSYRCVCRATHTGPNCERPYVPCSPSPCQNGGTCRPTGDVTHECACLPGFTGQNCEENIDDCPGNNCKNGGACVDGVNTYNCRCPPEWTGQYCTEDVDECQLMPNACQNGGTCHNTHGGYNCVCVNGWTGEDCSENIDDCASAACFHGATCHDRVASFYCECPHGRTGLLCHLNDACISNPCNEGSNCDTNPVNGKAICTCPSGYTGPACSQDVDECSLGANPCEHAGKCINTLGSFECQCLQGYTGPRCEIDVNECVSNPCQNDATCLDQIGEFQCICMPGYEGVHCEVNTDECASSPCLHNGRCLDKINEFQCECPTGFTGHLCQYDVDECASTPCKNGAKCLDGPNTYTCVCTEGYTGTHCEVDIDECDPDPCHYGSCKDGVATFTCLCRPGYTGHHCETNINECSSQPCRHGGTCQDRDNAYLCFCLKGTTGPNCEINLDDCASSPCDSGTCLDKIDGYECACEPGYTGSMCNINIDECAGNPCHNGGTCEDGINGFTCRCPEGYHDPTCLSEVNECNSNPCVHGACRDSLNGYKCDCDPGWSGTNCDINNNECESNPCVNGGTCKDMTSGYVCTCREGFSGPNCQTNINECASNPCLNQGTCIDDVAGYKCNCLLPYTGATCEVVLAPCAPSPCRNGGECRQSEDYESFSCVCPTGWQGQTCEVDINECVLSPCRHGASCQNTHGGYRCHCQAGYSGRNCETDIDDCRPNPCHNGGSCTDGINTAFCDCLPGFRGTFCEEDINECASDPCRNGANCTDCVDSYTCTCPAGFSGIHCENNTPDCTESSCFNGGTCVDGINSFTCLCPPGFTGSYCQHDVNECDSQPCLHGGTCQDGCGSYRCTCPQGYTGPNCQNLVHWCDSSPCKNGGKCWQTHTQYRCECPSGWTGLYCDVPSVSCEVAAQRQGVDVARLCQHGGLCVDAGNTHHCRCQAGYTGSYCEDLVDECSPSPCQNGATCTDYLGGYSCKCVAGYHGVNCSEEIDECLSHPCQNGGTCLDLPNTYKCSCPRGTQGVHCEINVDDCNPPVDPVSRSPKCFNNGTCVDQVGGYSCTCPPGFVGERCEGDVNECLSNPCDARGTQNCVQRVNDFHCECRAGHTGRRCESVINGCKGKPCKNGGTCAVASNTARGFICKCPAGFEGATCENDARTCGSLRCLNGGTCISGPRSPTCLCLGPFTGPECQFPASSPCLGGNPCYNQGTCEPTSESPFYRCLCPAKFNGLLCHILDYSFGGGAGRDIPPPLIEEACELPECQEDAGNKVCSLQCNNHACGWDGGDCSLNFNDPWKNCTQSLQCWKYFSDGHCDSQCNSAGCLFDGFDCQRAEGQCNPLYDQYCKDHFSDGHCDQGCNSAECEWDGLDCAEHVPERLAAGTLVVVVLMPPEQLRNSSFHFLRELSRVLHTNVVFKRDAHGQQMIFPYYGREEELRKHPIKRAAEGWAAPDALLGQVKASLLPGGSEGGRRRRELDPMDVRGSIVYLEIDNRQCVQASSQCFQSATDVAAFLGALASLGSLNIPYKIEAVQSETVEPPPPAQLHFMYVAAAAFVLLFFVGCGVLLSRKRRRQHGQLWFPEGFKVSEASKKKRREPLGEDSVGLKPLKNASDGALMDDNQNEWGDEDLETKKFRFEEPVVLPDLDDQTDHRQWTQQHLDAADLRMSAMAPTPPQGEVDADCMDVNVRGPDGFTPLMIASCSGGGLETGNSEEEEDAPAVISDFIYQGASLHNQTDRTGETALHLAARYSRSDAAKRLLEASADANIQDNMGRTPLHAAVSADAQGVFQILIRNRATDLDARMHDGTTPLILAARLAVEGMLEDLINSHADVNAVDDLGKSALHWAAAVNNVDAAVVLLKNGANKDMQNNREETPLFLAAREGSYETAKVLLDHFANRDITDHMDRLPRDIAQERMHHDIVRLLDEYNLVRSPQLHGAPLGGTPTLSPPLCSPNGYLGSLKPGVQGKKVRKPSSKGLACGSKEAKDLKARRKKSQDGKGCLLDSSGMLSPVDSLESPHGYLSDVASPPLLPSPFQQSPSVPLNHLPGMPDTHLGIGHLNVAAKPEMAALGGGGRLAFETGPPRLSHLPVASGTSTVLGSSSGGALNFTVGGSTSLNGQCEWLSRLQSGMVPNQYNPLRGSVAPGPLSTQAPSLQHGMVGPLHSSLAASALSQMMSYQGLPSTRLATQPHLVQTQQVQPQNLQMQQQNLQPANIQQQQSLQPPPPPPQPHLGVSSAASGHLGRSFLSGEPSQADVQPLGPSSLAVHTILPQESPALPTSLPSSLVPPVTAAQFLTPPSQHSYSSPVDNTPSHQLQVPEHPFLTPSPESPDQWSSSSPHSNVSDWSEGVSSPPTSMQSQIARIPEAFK

SMILES: CC1=C(CO)C(=O)O[C@@H]([C@@H](C)[C@H]2CC[C@H]3[C@@H]4C[C@H]5O[C@]56[C@@H](OC(=O)c5ccccn5)C=CC(=O)[C@]6(C)[C@H]4CC[C@]23C)C1 [ASR490, Pyridine-2-carboxylic acid {17-[1-(5-hydroxymethyl-4-methyl-6-oxo-3,6-dihydro-2H-pyran-2-yl)-ethyl]-10,13-dimethyl-1-oxo, 4,6,7,8,9,10,11,12,13,14,15,16,17-tetradecahydro-20-oxacyclopropa[5,6]cyclopenta[a]phenanthren-4-yl}ester]
- binding to NRR by CETSA [1]: binds directly to NRR
- thermal stabilization of NRR protein (purified NRR protein): increased stabilization of NRR protein
- induction of apoptosis (HCT116 cells [2]): 19.9%
- induction of apoptosis (Notch1/HCT116 clone C4 [3]): 13.4%
- induction of apoptosis (Notch1/HCT116 clone C5 [4]): 13.2%
- induction of apoptosis (SW-620 cells [5]): 9.57%
- induction of apoptosis (pCMV/HCT116 cells [6]): 25.8%
- inhibition of migratory capability (HCT116 cells [7]): 25.18%
- decline in invasive capacity (Notch1/HCT116 clone C4 [8]): 60.75%
- decline in invasive capacity (Notch1/HCT116 clone C5 [9]): 65.5%
- inhibition of migratory capability (SW620 cells): 32.36%
- decline in invasive capacity (pCMV/HCT116 cells [10]): 40%
- decline in migratory potential (pCMV/HCT116 cells [10]): 25.11%
- IC50 (ALDH+ (BCSC) cells; [16]): 770 nM
- IC50 (ALDH+ (BCSC) cells; [17]): 443 nM
- IC50 (ALDH− (BC) cells; [16]): 1600 nM
- IC50 (ALDH− (BC) cells; [17]): 836 nM
- proteasome inhibition [11]: not a proteasomal inhibitor
- ubiquitin expression (ubiquitin in ALDH+ cells): time dependent increased ubiquitin expression
- IC50 (MDA-MB-231 TNBC cells; MDA-MB-231, 24 h): 760 nM
- IC50 (MDA-MB-231 TNBC cells; MDA-MB-231, 48 h): 444 nM
- inhibition of proliferation by combination (MDA-MB-231 TNBC cells; ⅕th of IC50 of ASR490 (152 nM) in combination with 1/20th of IC50 of DOX (46.4 nM)): 30%
- growth inhibition alone (MDA-MB-231 TNBC cells; ⅕th of IC50 of ASR490 alone): did not inhibit the growth
- IC50 (SW-620 cells [12]; SW-620, 24-h): 1200 nM
- IC50 (SW-620 cells [12]; SW-620, 48-h): 850 nM
- safe dose relative to dose used in efficacy studies (500 mg/kg vs 5 mg/kg): 100 times
- safe dose (MTD check) (nu/nu mice): ≤ 500 mg/kg
- apoptosis (MDA-MB-231 cells; MDA MB-231, 24 h): approximately 20
- apoptosis (MDA-MB-231 cells; MDA MB-231, 48 h): ~43
- reduction of colony forming ability (pCMV/HCT116 cells [13]): 22.3%
- reduction of colony forming ability (Notch1/HCT116 clone C4 [14]): 38%
- tumor growth (pCMV/HCT116 xenografts): significant tumor growth inhibition
- Notch2 expression (Notch2 in HCT116 cells): no change
- Notch3 expression (Notch3 in HCT116 cells): no change
- tumor burden [15]: significantly reduced tumor burden
